Reference: patent publication US7696174B2, “Short bio-active peptides for cellular and immunological modulation” (Helix Biomedix, Inc., priority 2007, dated 2010)
Entries after “also recorded” stand apart in the source; their conditions may differ. Where two headings read alike, the source gives them in different places.

How the values were obtained:
[1] = test system: PAM 212 murine epidermal keratinocyte; assay: Cell proliferation assay, PAM 212 murine epidermal keratinocytes; format: cell-based; settings: for cell proliferation as a percent of control cell proliferation: control = cells treated with PBS only; for cell proliferation activity (in words): epidermal keratinocytes
Method: To examine this question, an overlapping set of peptide fragments of HB-107 was generated using standard solid phase peptide chemistry. These peptides were then assayed for cell proliferation activity at concentrations of 0.22, 2.15, 21.5 and 46.4 μg/mL.
The cell proliferation assays proceeded from the following experimental protocol:
Cell Proliferation Assay Using a Mouse Keratinocyte Cell Line.
OBJECTIVE: To determine the anti-proliferative or cytotoxic potential of a test article when applied to epidermal keratinocytes in culture.
TEST SYSTEM: Either the murine keratinocyte cell line PAM212 or primary Normal Human Epidermal Keratinocytes (NHEK, from Clonetics) are preferred models, although other cells may be used.
Keratinocytes are examined microscopically daily. As the culture becomes 50-75% confluent, the media in the plate is aspirated and 0.25% trypsin/EDTA is added (0.05% trypsin for human cells). When the cells become rounded, the trypsin is neutralized by addition of an equal volume of DMEM or KBM supplemented with approximately 10% bovine serum or by using trypsin neutralizing solution (TNS, from Clonetics). Cells are then centrifuged and the pellet is resuspended in 1 ml of DMEM-1 or KBM. A hemacytometer is used to count the cell suspension and the total number of cells/mL is adjusted to 1.5-2.5×10^4 cells/mL with DMEM-1 or KBM. Cells are then plated in 96-well plates at a concentration of 3.0-5.0×10^3 cells/well by adding 200 μL of the cell suspension to each well. Typically, the central 60 wells are used and the outer wells are filled with DMEM or PBS to minimize evaporation effects.
A stock solution of the test article is prepared using DMEM-1 or KBM, and all other dilutions are henceforth prepared from this solution. Typically, each dilution is filtered through an 0.2-μm filter before application to the cell culture. A 1.0% (w/v or v/v) solution or suspension is prepared, and 10-fold or 3-fold serial dilutions are made in culture medium.
The cells are examined 18-24 hours after plating to ensure cell attachment and division, and then 100 μL of the media is aspirated, leaving behind 100 μL in each well. Then 100 μL of a 2× concentration of each test article dilution is added to the replicate wells. For the negative control, 100 μL of the vehicle media (DMEM-1 or KBM) is added to the control wells. The microplate is then incubated at 37 degrees C. and 5.0% CO2 for 48-72 hours after dosing, and cells are allowed to proliferate undisturbed. Following this 48-72 hour exposure, all media is aspirated and proliferation is assessed by one of the below methods.
Option A: neutral red uptake. After exposure and aspiration of media, 200 μL of neutral red media is immediately added to each well. The microplate is returned to the incubator for an additional three hours. Following this dye uptake period, the microplate is removed from the incubator and gently inverted, and the neutral red media is decanted into a collection pan. The cells are then fixed with fixing solution for approximately one minute. The fixing solution is decanted off, and the microplate is washed gently three times with washing solution. The washing solution is decanted, and 200 μL of lysing solution is added. After at least 15 minutes, the contents of each well are re-pipetted to ensure even color distribution in each well, and an aliquot is read on the spectrophotometer as detailed below.
Option B: MTT conversion assay. After exposure and aspiration of media, 200 μL of MTT assay media is immediately added to each well. […] The microplate is returned to the incubator for an additional three hours. Following this dye uptake period, the microplate is removed from the incubator and gently inverted, and the MTT media is decanted into a collection pan. The cells are then washed gently three times with washing solution. The washing solution is decanted, and 200 μL of lysing solution is added. […]

[2] = test system: human epidermal keratinocyte; assay: Keratinocyte cell migration assay (tissue culture scratch test); format: cell-based
From the text: Cell proliferation alone is not sufficient to aid in wound healing. Upon sustaining an injury, cells bordering the wound proliferate; the migration of such newly formed cells to close the injury (or chronic lesion of older, dysfunctional tissue) is of equal importance. To address this issue, HB-107 and peptide fragments thereof were examined using a keratinocyte cell migration assay based on a simple tissue culture scratch test. […] The protocol for this assay is standard and has been described by Shanley et al. (2004, Invest. Ophthalmol. Vis. Sci. 45:1088-1094), the article of which is herein incorporated by reference in its entirety.

[3] = test system: IL6 expression in epithelial cells; assay: Repression of IL6 expression in resting epithelial cells; format: cell-based; settings: for % Change in IL6 expression / Change in IL6 versus PBS control: 20 μg/mL peptide
From the text: The protocol for this assay is standard and described by Murakami et al. (2004, J. Immunol. 172:[…]), the article of which is incorporated herein by reference in its entirety.

[4] = test system: UVB-induced IL6 expression in human skin epithelial cells (ATCC CRL-2592); assay: UVB-induced IL6 expression in skin epithelial cells (ELISA); format: cell-based; settings: for IL6 (OD 450): UVB 35 seconds, then 40 μg/mL peptide for twenty hours, UV only 0.7305, control 0.0730
Method: FIG. 3: Effect of short peptides on UVB-induced IL6 expression in skin epithelial cells. Cells were exposed to UVB irradiation for 35 seconds, after which cells were incubated in complete medium (no serum) with 40 μg/mL peptide [HB-107 (SEQ ID NO:1), HB-802 (SEQ ID NO:12), HB-1410 (SEQ ID NO:15), HB-801 (SEQ ID NO:31)] for twenty hours. IL6 expression was then measured by ELISA. Refer to Example 4.
An assay was performed to determine whether peptide fragments of HB-107 can induce anti-inflammatory activity in cells exposed to ultraviolet light. Human skin epithelial cells (ATCC CRL-2592) were seeded into 6-well plates and grown to more than 95% confluence in DMEM with 4 mM L-glutamine adjusted to contain 1.5 g/L sodium bicarbonate and 4.5 g/L glucose (complete medium) supplemented with 10% fetal bovine serum. The cells were serum starved for 5 hours prior to UVB treatment. UVB was generated using a UVLMS lamp (4W model, 3UV assembly, Upland, Calif.) with the irradiation wavelength set at 302 nm. The UV lamp was placed 12 cm above the tissue culture plate (6-well plate) and two wells were treated at one time to allow homogenous UVB irradiation. Cells were exposed to UVB irradiation (450 μW/cm^2, measured using a radiometer) in PBS to avoid ultraviolet light-induced generation of toxic photochemicals. IL6 expression was measured as an indicator of cell inflammatory activity in response to UVB.
Individual peptides were screened to determine the effects thereof on UVB-induced IL6 expression in skin epithelial cells. Cells were exposed to UVB (450 μW/cm^2) for 35 seconds in PBS, after which the PBS was replaced with complete medium without serum in the presence or absence of 40 μg/ml peptide and incubated at 37 degrees C./5% CO2 for twenty hours. The supernatant media was then collected and centrifuged at 10,000 rpm to remove debris, prior to ELISA for human IL6 (CellSciences, Mass.).

[5] = compared with cecropin B; cited from earlier work
[6] = Lee et al., 2004; cited from earlier work
[7] = 24 hr after addition of 20 μg/mL peptide
[8] = 48 hr after addition of 20 μg/mL peptide

Substance | cell proliferation as a percent of control cell proliferation ([1]; 0.22 μg/mL peptide) [%] | cell proliferation as a percent of control cell proliferation ([1]; 2.15 μg/mL peptide) [%] | cell proliferation as a percent of control cell proliferation ([1]; 21.5 μg/mL peptide) [%] | cell proliferation as a percent of control cell proliferation ([1]; 46.4 μg/mL peptide) [%] | amount of IL6, Average [3, 7] [pg/mL] | amount of IL6, Well 1 [3, 7] [pg/mL] | amount of IL6, Well 2 [3, 7] [pg/mL] | % Change in IL6 expression ([3]; 24 hr) [%] | Change in IL6 versus PBS control ([3]; 24 hr) | amount of IL6, Average [3, 8] [pg/mL] | amount of IL6, Well 1 [3, 8] [pg/mL] | amount of IL6, Well 2 [3, 8] [pg/mL] | % Change in IL6 expression ([3]; 48 hr) [%] | Change in IL6 versus PBS control ([3]; 48 hr) | IL6 (OD 450) [4] [OD 450] | cell proliferation activity (in words) [1] | also measured
MPKEKVFLKIEKMGRNIRN (listed as Hyalophora cecropia) [HB-107, parent peptide, a fragment of cecropin B, an antimicrobial protein present in a species of moth, reference compound] | 57 | 75 | 121 | 126 | 286.065 | 307.58 | 264.55 | −11.60 | −37.435 | 738.35 | 690.58 | 786.12 | −24.30 | −236.685 | 0.7315 |  | percent closure of the scratch compared to initial width ([2]; 6 hr exposure to peptide): 52%; percent closure of the scratch compared to initial width ([2]; 10 hr exposure to peptide): 78%; bacteriostatic effects (in words) [5]: does not display the bacteriostatic effects; wound healing in vivo (in words) [6]: does display epidermal wound healing qualities; also recorded: stimulate wound healing in vivo
PKEK (listed as Hyalophora cecropia) [HB-1410, fragment of HB-107] |  |  |  |  |  |  |  |  |  |  |  |  |  |  | 0.5105 |  | reduction of UVB-induced IL6 / anti-inflammatory activity (in words) [4]: capable of significantly reducing the level of IL6; reduction of UVB-induced IL6 / anti-inflammatory activity (in words) ([4]; listed as SEQ ID NO:15): having anti-inflammatory activity
PKEKV (listed as Hyalophora cecropia) [HB-801, fragment of HB-107] | 101 | 100 | 113 | 131 |  |  |  |  |  |  |  |  |  |  | 0.8275 | can induce cell proliferation | 
MPKEK (listed as Hyalophora cecropia) [HB-802, fragment of HB-107] | 121 | 130 | 135 | 133 | 283.485 | 278.32 | 288.65 | −12.50 | −40.435 | 768.045 | 774.07 | 762.02 | −21.20 | −206.99 | 0.6500 | can induce cell proliferation | IL6 reduction / anti-inflammatory activity in resting cells (in words) [3]: decrease the level of IL6 expression to the same degree as the HB-107 parent peptide; also recorded: ability to reduce IL6 in resting cells; IL6 reduction / anti-inflammatory activity in resting cells (in words) ([3]; listed as SEQ ID:12): displays both proliferative and anti-inflammatory activities
